Values after ≈ are worked out from the molar mass of the structure shown.
What was measured:
[1] = test system: Aeromonas sp.; experiment: Antibacterial activity against Aeromonas sp. assessed as growth inhibition at 0.03 ug/ml by broth microdilution method; type: functional
[2] = test system: Salmonella sp.; experiment: Antibacterial activity against Salmonella sp. assessed as growth inhibition at 0.008 ug/ml by broth microdilution method; type: functional
[3] = test system: Aeromonas sp.; experiment: Antibacterial activity against Aeromonas sp. assessed as growth inhibition at 1 ug/ml by broth microdilution method; type: functional
[4] = test system: Escherichia coli; experiment: Antibacterial activity against enteropathogenic Escherichia coli by broth microdilution method; type: functional
[5] = test system: Escherichia coli; experiment: Antibacterial activity against Escherichia coli assessed as growth inhibition at 0.008 ug/ml by broth microdilution method; type: functional
[6] = Antibacterial activity against Salmonella enterica serovar Newport by broth microdilution method; type: functional, Salmonella enterica subsp. enterica serovar Newport
[7] = test system: Escherichia coli; experiment: Antibacterial activity against enteroaggregative Escherichia coli assessed as percent susceptible isolates by broth microdilution method; type: functional
[8] = test system: Plesiomonas shigelloides; experiment: Antibacterial activity against Plesiomonas shigelloides assessed as growth inhibition at 0.008 ug/ml by broth microdilution method; type: functional
[9] = test system: Campylobacter sp.; experiment: Antibacterial activity against Campylobacter sp. assessed as growth inhibition at 0.06 ug/ml by broth microdilution method; type: functional
[10] = test system: Yersinia pseudotuberculosis; experiment: Antibacterial activity against Yersinia pseudotuberculosis by broth microdilution method; type: functional
[11] = test system: Shigella sp.; experiment: Antibacterial activity against Shigella sp. assessed as growth inhibition at 0.12 ug/ml by broth microdilution method; type: functional
[12] = test system: Yersinia pseudotuberculosis; experiment: Antibacterial activity against Yersinia pseudotuberculosis assessed as percent susceptible isolates by broth microdilution method; type: functional
[13] = test system: Aeromonas sp.; experiment: Antibacterial activity against Aeromonas sp. assessed as growth inhibition at 0.5 ug/ml by broth microdilution method; type: functional
[14] = test system: Aeromonas sp.; experiment: Antibacterial activity against Aeromonas sp. assessed as growth inhibition at 0.016 ug/ml by broth microdilution method; type: functional
[15] = test system: Aeromonas veronii; experiment: Antibacterial activity against Aeromonas veronii assessed as percent susceptible isolates by broth microdilution method; type: functional
[16] = test system: Vibrio parahaemolyticus; experiment: Antibacterial activity against Vibrio parahaemolyticus by broth microdilution method; type: functional
[17] = test system: Shigella boydii; experiment: Antibacterial activity against Shigella boydii by broth microdilution method; type: functional
[18] = test system: Aeromonas sobria; experiment: Antibacterial activity against Aeromonas sobria assessed as percent resistant isolates by broth microdilution method; type: functional
[19] = test system: Yersinia sp.; experiment: Antibacterial activity against Yersinia sp. assessed as growth inhibition at 0.12 ug/ml by broth microdilution method; type: functional; conditions: Yersinia sp. (in: enterobacteria)
[20] = test system: Salmonella paratyphi; experiment: Antibacterial activity against Salmonella enterica serovar Paratyphi assessed as percent susceptible isolates by broth microdilution method; type: functional, Salmonella enterica subsp. enterica serovar Paratyphi A
[21] = test system: Escherichia coli; experiment: Antibacterial activity against blood-borne Escherichia coli by broth microdilution method; type: functional
[22] = test system: Shigella boydii; experiment: Antibacterial activity against Shigella boydii assessed as percent susceptible isolates by broth microdilution method; type: functional; conditions: pooled result: one value given for 3 cell lines, strains, targets or settings
[23] = test system: Campylobacter jejuni; experiment: Antibacterial activity against Campylobacter jejuni assessed as percent susceptible isolates by broth microdilution method; type: functional; conditions: pooled result: one value given for 2 cell lines, strains, targets or settings
[24] = test system: Salmonella typhimurium; experiment: Antibacterial activity against Salmonella enterica serovar Typhimurium by broth microdilution method; type: functional, Salmonella enterica subsp. enterica serovar Typhimurium
[25] = test system: Escherichia coli; experiment: Antibacterial activity against blood-borne Escherichia coli assessed as percent resistant isolates by broth microdilution method; type: functional
[26] = test system: Vibrio sp.; experiment: Antibacterial activity against Vibrio sp. assessed as growth inhibition at 0.03 ug/ml by broth microdilution method; type: functional
[27] = test system: Salmonella sp.; experiment: Antibacterial activity against Salmonella sp. assessed as growth inhibition at 0.12 ug/ml by broth microdilution method; type: functional
[28] = test system: Vibrio sp.; experiment: Antibacterial activity against Vibrio sp. assessed as growth inhibition at 0.016 ug/ml by broth microdilution method; type: functional
[29] = test system: Escherichia coli; experiment: Antibacterial activity against Escherichia coli assessed as growth inhibition at =<0.002 ug/ml by broth microdilution method; type: functional
[30] = test system: Yersinia sp.; experiment: Antibacterial activity against Yersinia sp. assessed as growth inhibition at 0.016 ug/ml by broth microdilution method; type: functional; conditions: Yersinia sp. (in: enterobacteria)
[31] = test system: Shigella sp.; experiment: Antibacterial activity against Shigella sp. assessed as growth inhibition at 0.03 ug/ml by broth microdilution method; type: functional
[32] = test system: Vibrio parahaemolyticus; experiment: Antibacterial activity against Vibrio parahaemolyticus assessed as percent susceptible isolates by broth microdilution method; type: functional
[33] = test system: Vibrio sp.; experiment: Antibacterial activity against Vibrio sp. assessed as growth inhibition at =<0.002 ug/ml by broth microdilution method; type: functional
[34] = test system: Shigella dysenteriae; experiment: Antibacterial activity against Shigella dysenteriae by broth microdilution method; type: functional
[35] = test system: Shigella sonnei; experiment: Antibacterial activity against Shigella sonnei assessed as percent resistant isolates by broth microdilution method; type: functional; conditions: pooled result: one value given for 4 cell lines, strains, targets or settings
[36] = test system: Campylobacter sp.; experiment: Antibacterial activity against Campylobacter sp. assessed as growth inhibition at =<0.002 ug/ml by broth microdilution method; type: functional
[37] = test system: Salmonella sp.; experiment: Antibacterial activity against Salmonella sp. assessed as growth inhibition at 0.004 ug/ml by broth microdilution method; type: functional
[38] = test system: Vibrio fluvialis; experiment: Antibacterial activity against Vibrio fluvialis by broth microdilution method; type: functional
[39] = test system: Campylobacter sp.; experiment: Antibacterial activity against Campylobacter sp. assessed as growth inhibition at 0.016 ug/ml by broth microdilution method; type: functional
[40] = test system: Shigella sp.; experiment: Antibacterial activity against Shigella sp. assessed as growth inhibition at 0.06 ug/ml by broth microdilution method; type: functional
[41] = Antibacterial activity against Salmonella enterica serovar Choleraesuis assessed as percent susceptible isolates by broth microdilution method; type: functional, Salmonella enterica subsp. enterica serovar Choleraesuis
[42] = Escherichia coli, read-out: MIC50
[43] = Escherichia coli, read-out: MIC90

## CC1Sc2c(C(=O)O)c(=O)c3cc(F)c(N4CCNCC4)cc3n21 (stereo unspecified) [ULIFLOXACIN]
[1]
  inhibition at 0.03 µg/mL: 87%
[2]
  inhibition at 0.008 µg/mL: 65%
[3]
  inhibition at 1 µg/mL: 98%
[4]
  MIC: 4 ng/mL (≈ 0.0114 µM)
  MIC50: 8 ng/mL (≈ 0.0229 µM)
  MIC90: 8 ng/mL (≈ 0.0229 µM)
[4]; [42]
  MIC50: 8 ng/mL (≈ 0.0229 µM)
[4]; [43]
  MIC90: 8 ng/mL (≈ 0.0229 µM)
[5]
  inhibition at 0.008 µg/mL: 93%
[6]
  MIC50: 8 ng/mL (≈ 0.0229 µM)
  MIC90: 30 ng/mL (≈ 0.0859 µM)
[7]
  Activity: 100%
[8]
  inhibition at 0.008 µg/mL: 100%
[9]
  inhibition at 0.06 µg/mL: 77%
[10]
  MIC: 8 ng/mL (≈ 0.0229 µM)
  MIC50: 8 ng/mL (≈ 0.0229 µM)
  MIC90: 16 ng/mL (≈ 0.0458 µM)
[11]
  inhibition at 0.12 µg/mL: 100%
[12]
  Activity: 100%
[13]
  inhibition at 0.5 µg/mL: 98%
[14]
  inhibition at 0.016 µg/mL: 78%
[15]
  Activity: 98%
[16]
  MIC50: 16 ng/mL (≈ 0.0458 µM)
  MIC90: 30 ng/mL (≈ 0.0859 µM)
[17]
  MIC50: 4 ng/mL (≈ 0.0114 µM)
  MIC90: 8 ng/mL (≈ 0.0229 µM)
[18]
  Activity: 2%
[19]
  inhibition at 0.12 µg/mL: 100%
[20]
  Activity: 100%
[21]
  MIC50: 8 ng/mL (≈ 0.0229 µM)
  MIC90: 60 ng/mL (≈ 0.172 µM)
[21]; [42]
  MIC50: 8 ng/mL (≈ 0.0229 µM)
[21]; [43]
  MIC90: 60 ng/mL (≈ 0.172 µM)
[22]
  Activity: 100%
[23]
  Activity: 84.4%
[24]
  MIC50: 8 ng/mL (≈ 0.0229 µM)
  MIC90: 30 ng/mL (≈ 0.0859 µM)
[25]
  Activity: 10%
[26]
  inhibition at 0.03 µg/mL: 100%
[27]
  inhibition at 0.12 µg/mL: 100%
[28]
  inhibition at 0.016 µg/mL: 65%
[29]
  inhibition (INH): 0%
[30]
  inhibition at 0.016 µg/mL: 93%
[31]
  inhibition at 0.03 µg/mL: 99%
[32]
  Activity: 100%
[33]
  inhibition (INH): 15%
[34]
  MIC50: 4 ng/mL (≈ 0.0114 µM)
  MIC90: 8 ng/mL (≈ 0.0229 µM)
[35]
  Activity: 0%
[36]
  inhibition (INH): 0%
[37]
  inhibition at 0.004 µg/mL: 10%
[38]
  MIC50: 16 ng/mL (≈ 0.0458 µM)
  MIC90: 30 ng/mL (≈ 0.0859 µM)
[39]
  inhibition at 0.016 µg/mL: 8%
[40]
  inhibition at 0.06 µg/mL: 99%
[41]
  Activity: 100%

From ChEMBL document CHEMBL1629662, “Antimicrobial activity of prulifloxacin tested against a worldwide collection of gastroenteritis-producing pathogens, including those causing traveler's diarrhea” (2009)
